# From patent publication US8809275B2, “Peptoids and methods for treating alzheimer's disease” (The Board of Trustees of the University of Arkansas, priority 2011, dated 2014)
# Non-standard residues stand in square brackets, D forms with d. Residues, ends and D or L forms follow the SMILES beside them. N(1S-Me-propyl)Gly = CC[C@H](C)NCC(=O)O; Nspe = C[C@H](NCC(=O)O)c1ccccc1; Nlys = NCCCCNCC(=O)O
# Target: T1, Aβ fibrils (Homo sapiens, UniProt P05067)
# T1 construct: aliquots of Aβ(1-40) monomer, purified via size exclusion chromatography on Superdex 75
# T1 sequence (P05067 672-711): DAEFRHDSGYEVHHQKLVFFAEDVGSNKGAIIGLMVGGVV
# Assay: Dot blot assay with LOC antibody binding to Aβ fibrils
# Assay type: biochemical
# Procedure: The results of the ThT assay were confirmed using a dot blot assay with antibodies capable of binding to Aβ fibrils, but not Aβ monomers or pre-fibrils (LOC, available from Millipore). Thus, reduction of signal in the dot blot as compared to control is indicative of the peptoid blocking fibril formation. The intensity of the dot blot signal detecting the binding of the LOC antibody to the Aβ fibrils after incubation with a control was set to 100% to indicate maximal fibril formation. This can then be compared to the intensity of the LOC antibody dot blot signal after incubation of the Aβ with each of the peptoids. A reduction in the percent of antibody binding is indicative of inhibition of aggregation of Aβ in the assay. […] To control for the signal being at the maximum intensity parallel samples were diluted in half with 40 mM Tris buffer before being blotted (1:2). After 2 hours of incubation, none of the peptoids were capable of inhibiting aggregation of Aβ at a 1:1 dilution, likely because the antibody signal is too saturated to detect any effect of the peptoids.
structure (smiles),measurement,setting,value
CC[C@H](C)N(CC(=O)N(CC(=O)N(CC(=O)N(CC(=O)N(CC(=O)N(CC(=O)N(CC(N)=O)[C@@H](C)c1ccccc1)[C@@H](C)c1ccccc1)[C@@H](C)CC)[C@@H](C)c1ccccc1)[C@@H](C)c1ccccc1)[C@@H](C)CC)C(=O)CNCCCCN [Peptoid 2] (H-[Nlys][N(1S-Me-propyl)Gly][N(1S-Me-propyl)Gly][Nspe][Nspe][N(1S-Me-propyl)Gly][Nspe][Nspe]-NH2),"LOC antibody dot blot signal, percent of control (control = 100%)","Time 0 hr, dilution 1:1",73.03%
same,"LOC antibody dot blot signal, percent of control (control = 100%)","Time 0 hr, dilution 1:2",56.91%
same,"LOC antibody dot blot signal, percent of control (control = 100%)","Time 2 hr, dilution 1:1",108.61%
same,"LOC antibody dot blot signal, percent of control (control = 100%)","Time 2 hr, dilution 1:2",89.63%
